Assay results taken from patent publication US6288059A, “Acylated hetero-alicyclic derivatives” (Sankyo Company, Limited, priority 1997, dated 2001).

Key:
NK2 receptors = conditions: relative to SR48968; Tachykinin in Health and Disease abstract, 1997; cited from earlier work
NK2 receptor = molecular target: T1, NK2 receptor (Cavia porcellus, UniProt Q64077); assay: NK2 Receptor Binding Test ([3H]-SR-48968, crude ileum membrane fraction); set-up: species or system guinea pig (male Hartley); conditions: [3H]-SR-48968 1 nM; guinea pig ileum membrane; room temperature, 30 minutes; read-out: IC50 (50% binding drug concentration) (converted)
T1 construct: A crude membrane fraction was prepared from the ileum of male Hartley guinea pigs; from tissue; host or cells: ileum of male Hartley guinea pigs, crude membrane fraction
T1 sequence (Q64077 1-402): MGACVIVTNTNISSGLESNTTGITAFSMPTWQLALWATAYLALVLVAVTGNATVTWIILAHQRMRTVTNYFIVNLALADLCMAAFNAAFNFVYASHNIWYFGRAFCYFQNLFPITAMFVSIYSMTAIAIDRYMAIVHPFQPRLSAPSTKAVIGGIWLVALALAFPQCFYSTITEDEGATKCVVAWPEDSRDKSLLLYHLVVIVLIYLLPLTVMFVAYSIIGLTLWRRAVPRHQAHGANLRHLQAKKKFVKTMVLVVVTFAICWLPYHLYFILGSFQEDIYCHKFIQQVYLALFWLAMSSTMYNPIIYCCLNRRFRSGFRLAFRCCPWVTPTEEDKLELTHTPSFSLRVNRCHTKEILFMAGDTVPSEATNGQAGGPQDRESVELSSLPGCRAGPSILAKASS
Description: Test Example 2 NK2 Receptor Binding Test
(a) Preparation of crude ileum membrane fraction
A crude membrane fraction was prepared from the ileum of male Hartley guinea pigs. Namely, the guinea pigs were bled from the cava abdominalis under chloroform anaesthesia and the ileum was extracted immediately.
After the contents secreta and epithelium of the ilium had been scraped off using a glass slide, the extracted ileum was thinly cut in a buffer (1) (50 mM Tris-HCl, pH 7.4) and then homogenized in a buffer (2) [buffer (1) containing 120 mM sodium chloride and 5 mM potassium chloride] using a Polytron homogenizer.
The tissue mass was removed from the homogenate by filtration with a nylon mesh (50 μm) and the supernatant was centrifuged (30,000×g, 30 minutes, 4° C.).
The resultant pellet was resuspended in an ice-cooled buffer (3) [buffer (1) containing 10 mM EDTA and 300 mM potassium chloride], allowed to stand at 4° C. for 60 minutes and then washed centrifugally twice (30,000×g, 15 minutes, 4° C.).
The crude membrane fraction was preserved at -80° C. before use.
(b) Receptor Binding Test
To a mixed solution (250 μl) of the test compound and [^3 H]-SR.-48968 (Amasham Co., final concentration: 1 nM) (50 mM Tris-HCl, pH 7.4; 6 mM manganese chloride, 800 μg/ml BSA, 8 μg/ml chymostatin, 8 μg/ml leupeptin, 80 μg/ml bacitracin, 20 μg/ml phosphoramidon) was added the crude ileum membrane fraction solution (250 μl), followed by incubation at room temperature for 30 minutes.
After the reaction, a membrane ingredient was recovered on a GF/B glass fiber filter (Whatman Co.) using an automatic filtering device (Brandel Co.).
The glass filter was used after pretreatment with a 10% of polyethyleneimine solution for about 4 hours so as to inhibit non-specificbinding as much as possible.
The membrane ingredient-recovered filter was transferred to a mini-plastic vial containing a pico flow (4 ml) and the radioactivity was measured using a liquid scintillation counter (Beckman Co., LSC3500) to determine the 50% binding drug concentration (IC50).

Compound | NK2 receptor-selective antagonistic activity compared with SR.48968 (NK2 receptors) | IC50 (NK2 receptor)
CN(C)C(=O)NC1(c2ccccc2)CCN(CC[C@@]2(c3ccc(F)c(F)c3)CN(C(=O)c3ccccc3)CCO2)CC1 [SR144190] | more potent than that of SR.48968 | 
O=C(C1CC1)N1CCOC(CCN2CCC3(CC2)c2ccccc2C[S+]3[O-])(c2ccc(Cl)c(Cl)c2)C1 [Example 2, 1-{2-[(2R)-(3,4-dichlorophenyl)-4-(cyclopropanecarbonyl)morpholin-2-yl]ethyl}spiro[benzo[c]thiophene-1(3H),4'-piperidine]-(2S)-oxide] |  | 1.39 nM
O=C(C1CCC1)N1CCOC(CCN2CCC3(CC2)c2ccccc2C[S+]3[O-])(c2ccc(Cl)c(Cl)c2)C1 [Example 1, 1-{2-[(2R)-(3,4-dichlorophenyl)-4-(cyclobutanecarbonyl)morpholin-2-yl]ethyl}spiro[benzo[c]thiophene-1(3H),4'-piperidine]-(2S)-oxide] |  | 1.67 nM
O=C(C1CCCC1)N1CCOC(CCN2CCC3(CC2)c2ccccc2C[S+]3[O-])(c2ccc(Cl)c(Cl)c2)C1 [Example 3, 1-{2-[(2R)-(3,4-dichlorophenyl)-4-(cyclopentanecarbonyl)morpholin-2-yl]ethyl}spiro[benzo[c]thiophene-1(3H),4'-piperidine]-(2S)-oxide] |  | 1.58 nM
